Data from patent US9440914B2, “Method for treating glioblastomas and other tumors” (THE FEINSTEIN INSTITUTE FOR MEDICAL RESEARCH, priority 2013, dated 2016).

System: GL261 cells
Test: colony formation assay of GL261 with or without microglia and irradiation
Assay type: cell-based, murine
Settings: 200 nM; for effect on microglia-stimulated GL261 survival (colony formation): co-culture with microglia
Experimental: Colony Formation Assay: G1261 cells and microglia were labeled as described for the invasion assay and were co-cultured in serum overnight and then changed to serum free medium for 48 h in the absence of serum at a 1:1 ratio at a density of 5×10^5 per well of a 6-well plate in the presence or absence of 200 nM semapimod. Subsequently, cells were subjected to 3 Gy of X-ray irradiation using a Radionics 160 kV irradiator. Two days after irradiation, cells were trypsinized, counted using a fluorescence microscope and 500 GL261 cells were plated in 6 cm dishes containing 10% FBS MSFM medium. Colony formation was allowed to proceed for 12 days, with medium changes every other day. Subsequently, the cells were fixed in 3.7% formaldehyde in PBS and stained with 0.2% (w/v) sulpharhodamine B (SRB) dye in 1% acetic acid for 20 min. The dishes were washed with 1% glacial acetic acid and allowed to dry. Plates were scanned and processed using Photoshop 5 (Adobe). Images were changed to grayscale and background threshold intensity was set. Colonies were counted automatically by Image J (rsbweb.nih.gov/ij/) and the numbers graphed.
Semapimod inhibits microglia-stimulated glioblastoma cell survival: A critical problem of malignant glioblastoma is its strong resistance to ionizing radiation (IR) and other therapeutic modalities (21). The role of microglia in glioblastoma cell survival has not been studied thus far. It was therefore examined whether microglia can enhance the survival of GL216 cells after IR and whether semapimod interferes with this function. GL261 cells were plated either in the presence or absence of microglia with or without semapimod (200 nM) for 2 days, followed by radiation treatment (3 Gy). Two days later, glioblastoma cell viability was assayed using a standard colony formation assay. […] In the presence of radiation, the stimulatory effect of microglia on glioblastoma cell survival is more marked (50%) and this effect is also abolished by semapimod (FIG. 2B).

## C/C(=N\NC(=N)N)c1cc(NC(=O)CCCCCCCCC(=O)Nc2cc(/C(C)=N/NC(=N)N)cc(/C(C)=N/NC(=N)N)c2)cc(/C(C)=N/NC(=N)N)c1 [semapimod]
3 Gy radiation
  effect on microglia-stimulated GL261 survival (colony formation): abolished
Absence of radiation
  effect on microglia-stimulated GL261 survival (colony formation): abolishes
No microglia
  effect on survival potential of glioblastoma cell monocultures: does not affect
